Source: patent US9334229B2, “Hydroxytyrosol derivatives, their method of preparation and use in personal care” (Eastman Chemical Company, priority 2013, dated 2016)

Columns and labels:
[1] = target: T1, Novozyme 435 (Candida antarctica lipase B immobilized on an acrylic resin) (Moesziomyces antarcticus, UniProt P41365); assay: Enzymatic hydrolysis with Novozyme 435 in toluene / pH 7 phosphate buffer, conversion to hydroxytyrosol by HPLC; format: in vitro ADME; details: 100 mg compound, 100 mg Novozyme 435, toluene / pH 7 phosphate buffer, LC analysis
T1 construct: purchased Novozyme 435
Protocol: (§1) 3,4-Bis(ethoxycarbonyloxy)phenethyl palmitate (100 mg; 0.186 mmol) was dissolved in 2 mL of toluene. Novozyme 435 (Candida antarctica lipase B immobilized on an acrylic resin) (100 mg) was added followed by 2 mL of pH 7 phosphate buffer. The mixture was stirred vigorously and periodically analyzed by HPLC. After 24 h, LC analysis indicated 75.4% conversion of Compound 2 to hydroxytyrosol. After 48 h, LC analysis indicated 82.6% conversion of Compound 2 to hydroxytyrosol.
as §1, with “Hydroxytyrosol trihexanoate from Comparative Example 8” for “3,4-Bis(ethoxycarbonyloxy)phenethyl palmitate”, “0.223” for “0.186”, “resin)(100” for “resin) (100”, “<1%” for “75.4%”, “hydroxytyrosol trihexanoate” for “Compound 2”, “<1%” for “82.6%”

[2] = Control reaction without enzyme (toluene / pH 7 phosphate buffer); format: physicochemical
Protocol: as §1, with “Novozyme 435 (Candida antarctica lipase B immobilized on an acrylic resin) (100 mg) was added followed by 2 mL of pH 7 phosphate buffer.” left out

T1 sequence (P41365 26-342): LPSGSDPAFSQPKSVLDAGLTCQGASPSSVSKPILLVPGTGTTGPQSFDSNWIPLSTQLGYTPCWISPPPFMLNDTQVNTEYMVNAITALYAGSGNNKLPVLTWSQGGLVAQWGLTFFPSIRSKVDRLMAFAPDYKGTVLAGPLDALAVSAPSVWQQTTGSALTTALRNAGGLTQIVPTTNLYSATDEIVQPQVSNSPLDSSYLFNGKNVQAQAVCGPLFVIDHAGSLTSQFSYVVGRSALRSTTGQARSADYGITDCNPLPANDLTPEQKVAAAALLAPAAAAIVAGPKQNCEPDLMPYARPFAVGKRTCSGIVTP

| conversion to hydroxytyrosol in control reaction without enzyme [2] | SMILES | Enzymatic conversion to hydroxytyrosol ([1]; after 24 h) [%] | Enzymatic conversion to hydroxytyrosol ([1]; after 24 h, listed as hydroxytyrosol trihexanoate) [%] | Enzymatic conversion to hydroxytyrosol ([1]; after 48 h) [%] | Enzymatic conversion to hydroxytyrosol ([1]; after 48 h, listed as hydroxytyrosol trihexanoate) [%] |
| --- | --- | --- | --- | --- | --- |
|  | CCCCCC(=O)OCCc1ccc(OC(=O)CCCCC)c(OC(=O)CCCCC)c1 [Hydroxytyrosol trihexanoate, Hydroxytyrosol Trihexanoate] | <1 | < 1 | <1 | < 1 |
| no conversion | CCCCCCCCCCCCCCCC(=O)OCCc1ccc(OC(=O)OCC)c(OC(=O)OCC)c1 [Compound 2, 3,4-Bis(ethoxycarbonyloxy)phenethyl palmitate] |  |  |  |  |
